Measured values from ChEMBL document CHEMBL5233233, “Histone deacetylase 3 (HDAC3) inhibitors as anticancer agents: A review” (Eur J Med Chem, 2020).
Blank lines part the entries; values can stand above or below the compound they belong to.

How the values were obtained:
[1] = target: Histone deacetylase; test: Inhibition of human HDAC using human HeLa cell nuclear extract measured after 60 mins by fluorescence assay; type: subcellular, Nucleus
[2] = target: T1, Histone deacetylase 3 (Homo sapiens, UniProt O15379); test: Inhibition of human HDAC3 using human HeLa cell nuclear extract at 1 uM measured after 60 mins by fluorescence assay; type: subcellular, Nucleus
[3] = target: T2, Histone deacetylase 2 (Homo sapiens, UniProt Q92769); test: Inhibition of human HDAC2 using human HeLa cell nuclear extract at 1 uM measured after 60 mins by fluorescence assay; type: subcellular, Nucleus
[4] = target: T3, Histone deacetylase 1 (Homo sapiens, UniProt Q13547); test: Inhibition of human HDAC1 using human HeLa cell nuclear extract at 1 uM measured after 60 mins by fluorescence assay; type: subcellular, Nucleus
[5] = target: T2, Histone deacetylase 2; test: Inhibition of human recombinant HDAC2 expressed in baculovirus by using Boc-L-Lys(Ac)-AMC as substrate measured after 24 hrs by fluorescence based analysis
[6] = target: T4, Histone deacetylase 8 (Homo sapiens, UniProt Q9BY41); test: Inhibition of human recombinant HDAC8 expressed in Escherichia coli BL21 (DE3) cells by using Boc-L-Lys(Ac)-AMC as substrate measured after 24 hrs by fluorescence based analysis
T4 sequence (Q9BY41 whole entry): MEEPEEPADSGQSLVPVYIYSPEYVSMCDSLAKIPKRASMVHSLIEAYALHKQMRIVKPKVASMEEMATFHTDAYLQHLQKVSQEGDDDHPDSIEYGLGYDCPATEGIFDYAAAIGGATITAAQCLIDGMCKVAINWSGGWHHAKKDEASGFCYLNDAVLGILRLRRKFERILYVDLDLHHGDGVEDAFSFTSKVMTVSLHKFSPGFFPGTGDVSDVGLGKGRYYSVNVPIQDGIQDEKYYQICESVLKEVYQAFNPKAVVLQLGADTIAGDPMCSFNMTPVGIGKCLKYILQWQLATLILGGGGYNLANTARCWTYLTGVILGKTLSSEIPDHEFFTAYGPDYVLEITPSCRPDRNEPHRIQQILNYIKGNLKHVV

[7] = target: T3, Histone deacetylase 1; test: Inhibition of human recombinant HDAC1 expressed in baculovirus by using Boc-L-Lys(Ac)-AMC as substrate measured after 24 hrs by fluorescence based analysis
[8] = target: T1, Histone deacetylase 3; test: Inhibition of human recombinant HDAC3 expressed in baculovirus by using Boc-L-Lys(Ac)-AMC as substrate measured after 24 hrs by fluorescence based analysis
[9] = target: T3, Histone deacetylase 1; test: Inhibition of human HDAC1 using fluorogenic as substrate measured after 30 mins by fluorescence based analysis
[10] = target: T1, Histone deacetylase 3; test: Inhibition of human HDAC3 using fluorogenic as substrate measured after 30 mins by fluorescence based analysis
[11] = target: T1, Histone deacetylase 3; test: Inhibition of HDAC3 (unknown origin) using acetylated 7-amino-4-methylcoumarin (AMC) as peptide substrate measured after 20 mins by fluorescence based analysis
[12] = target: T3, Histone deacetylase 1; test: Inhibition of HDAC1 (unknown origin) using acetylated 7-amino-4-methylcoumarin (AMC) as peptide substrate measured after 20 mins by fluorescence based analysis
[13] = target: T2, Histone deacetylase 2; test: Inhibition of HDAC2 (unknown origin) using acetylated 7-amino-4-methylcoumarin (AMC) as peptide substrate measured after 20 mins by fluorescence based analysis
[14] = target: T2, Histone deacetylase 2; test: Inhibition of human recombinant HDAC2 using (FAM)-labeled acetylated peptide substrate at 1 uM incubated for 17 hrs by fluorescence based analysis
[15] = target: T4, Histone deacetylase 8; test: Inhibition of human recombinant HDAC8 using (FAM)-labeled acetylated peptide substrate at 1 uM incubated for 17 hrs by fluorescence based analysis
[16] = target: T3, Histone deacetylase 1; test: Inhibition of human recombinant HDAC1 using (FAM)-labeled acetylated peptide substrate at 1 uM incubated for 17 hrs by fluorescence based analysis
[17] = target: T5, Protein deacetylase HDAC6 (Homo sapiens, UniProt Q9UBN7); test: Inhibition of human recombinant HDAC6 using (FAM)-labeled acetylated peptide substrate at 1 uM incubated for 17 hrs by fluorescence based analysis
T5 sequence (Q9UBN7 whole entry): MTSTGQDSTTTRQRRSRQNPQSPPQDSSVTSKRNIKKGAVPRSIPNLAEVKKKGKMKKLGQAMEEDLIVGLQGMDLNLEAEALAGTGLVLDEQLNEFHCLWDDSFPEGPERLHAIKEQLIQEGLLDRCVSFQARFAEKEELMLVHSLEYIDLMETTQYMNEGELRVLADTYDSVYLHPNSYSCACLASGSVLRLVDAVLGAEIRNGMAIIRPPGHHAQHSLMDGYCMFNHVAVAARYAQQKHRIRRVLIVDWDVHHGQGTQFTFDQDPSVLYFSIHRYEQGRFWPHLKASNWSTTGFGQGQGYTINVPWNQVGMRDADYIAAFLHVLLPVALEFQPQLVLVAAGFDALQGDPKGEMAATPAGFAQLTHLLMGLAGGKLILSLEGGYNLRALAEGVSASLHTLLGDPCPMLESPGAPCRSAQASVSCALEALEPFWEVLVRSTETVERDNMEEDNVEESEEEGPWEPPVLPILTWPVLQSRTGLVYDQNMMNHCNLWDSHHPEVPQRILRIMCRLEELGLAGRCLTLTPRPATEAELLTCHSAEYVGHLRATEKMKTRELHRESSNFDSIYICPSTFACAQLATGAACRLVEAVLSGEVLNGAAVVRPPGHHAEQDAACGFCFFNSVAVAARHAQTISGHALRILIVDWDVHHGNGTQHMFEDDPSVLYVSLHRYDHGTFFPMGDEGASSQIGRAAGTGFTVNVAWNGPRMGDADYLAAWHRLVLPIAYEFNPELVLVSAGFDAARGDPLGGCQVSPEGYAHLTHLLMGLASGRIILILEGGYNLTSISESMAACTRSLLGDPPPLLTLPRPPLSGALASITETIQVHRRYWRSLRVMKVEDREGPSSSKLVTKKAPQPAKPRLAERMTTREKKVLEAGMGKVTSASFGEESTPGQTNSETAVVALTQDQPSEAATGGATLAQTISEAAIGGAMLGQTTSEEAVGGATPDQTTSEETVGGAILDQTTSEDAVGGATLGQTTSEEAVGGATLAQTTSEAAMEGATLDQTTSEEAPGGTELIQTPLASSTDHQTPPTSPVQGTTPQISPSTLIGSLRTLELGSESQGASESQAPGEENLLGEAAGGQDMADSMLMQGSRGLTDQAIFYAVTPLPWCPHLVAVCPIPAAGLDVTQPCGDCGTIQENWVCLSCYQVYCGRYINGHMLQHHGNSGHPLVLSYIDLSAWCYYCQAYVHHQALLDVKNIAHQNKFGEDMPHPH

[18] = target: T3, Histone deacetylase 1; test: Inhibition of HDAC1 (unknown origin) using Boc-Lys (Ac)-AMC as substrate measured after 30 mins by fluorescence based analysis
[19] = target: T5, Protein deacetylase HDAC6; test: Inhibition of HDAC6 (unknown origin) using Boc-Lys (Ac)-AMC as substrate measured after 30 mins by fluorescence based analysis
[20] = target: T1, Histone deacetylase 3; test: Inhibition of HDAC3 (unknown origin) using Boc-Lys (Ac)-AMC as substrate measured after 30 mins by fluorescence based analysis

T2 sequence (Q92769 whole entry): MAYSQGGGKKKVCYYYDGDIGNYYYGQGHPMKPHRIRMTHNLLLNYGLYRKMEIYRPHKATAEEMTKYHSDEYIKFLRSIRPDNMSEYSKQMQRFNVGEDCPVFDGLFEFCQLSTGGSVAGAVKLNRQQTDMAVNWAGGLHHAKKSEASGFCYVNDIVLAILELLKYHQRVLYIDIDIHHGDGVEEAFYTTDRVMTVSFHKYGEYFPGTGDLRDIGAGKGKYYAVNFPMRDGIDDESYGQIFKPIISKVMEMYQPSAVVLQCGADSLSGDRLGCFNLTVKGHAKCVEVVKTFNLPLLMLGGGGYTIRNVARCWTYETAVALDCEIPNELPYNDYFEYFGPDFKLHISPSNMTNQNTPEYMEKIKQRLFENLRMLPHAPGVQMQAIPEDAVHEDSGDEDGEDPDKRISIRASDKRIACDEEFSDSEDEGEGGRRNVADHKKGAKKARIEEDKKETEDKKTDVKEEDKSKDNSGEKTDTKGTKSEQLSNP
T1 sequence (O15379 whole entry): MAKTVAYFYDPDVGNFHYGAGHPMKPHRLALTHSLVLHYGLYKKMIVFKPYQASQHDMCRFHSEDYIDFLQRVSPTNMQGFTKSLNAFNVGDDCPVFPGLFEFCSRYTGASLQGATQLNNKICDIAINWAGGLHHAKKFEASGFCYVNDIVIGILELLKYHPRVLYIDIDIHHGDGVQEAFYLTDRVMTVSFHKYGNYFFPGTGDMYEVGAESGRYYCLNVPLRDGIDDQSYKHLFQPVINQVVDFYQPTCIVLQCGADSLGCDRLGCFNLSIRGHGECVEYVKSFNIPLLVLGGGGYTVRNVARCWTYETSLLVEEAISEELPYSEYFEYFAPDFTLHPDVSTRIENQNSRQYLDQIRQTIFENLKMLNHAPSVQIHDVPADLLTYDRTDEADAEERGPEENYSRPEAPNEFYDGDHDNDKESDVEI
T3 sequence (Q13547 whole entry): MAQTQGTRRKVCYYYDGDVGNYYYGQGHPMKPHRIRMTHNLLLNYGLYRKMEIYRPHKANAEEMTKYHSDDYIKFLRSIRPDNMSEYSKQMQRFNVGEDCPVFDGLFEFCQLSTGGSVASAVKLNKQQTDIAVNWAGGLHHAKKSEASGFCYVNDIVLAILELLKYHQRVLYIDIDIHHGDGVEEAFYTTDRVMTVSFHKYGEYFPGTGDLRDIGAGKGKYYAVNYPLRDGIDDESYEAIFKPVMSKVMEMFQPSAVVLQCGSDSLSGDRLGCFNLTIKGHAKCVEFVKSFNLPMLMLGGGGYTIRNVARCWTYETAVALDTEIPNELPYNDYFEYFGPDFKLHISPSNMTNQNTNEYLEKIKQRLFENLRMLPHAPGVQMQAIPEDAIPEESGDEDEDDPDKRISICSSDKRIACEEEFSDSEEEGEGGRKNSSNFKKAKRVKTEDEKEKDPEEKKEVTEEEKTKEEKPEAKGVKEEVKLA

- IC50 [1]: 15.6 nM
Structure (SMILES): O=C(NO)c1ccc(NC(=O)[C@@H](NS(=O)(=O)c2cccc3ccccc23)c2ccccc2)cc1

- IC50 [2]: 50 nM
- IC50 [3]: > 1000 nM
- IC50 [4]: 220 nM
Structure (SMILES): Cc1ccccc1Cc1cn(CCCCCCC(=O)NO)c2ccc(-c3c(C)noc3C)cc12

- IC50 [2]: 18 nM
- IC50 [3]: 438 nM
- IC50 [4]: 431 nM
Structure (SMILES): Cc1ccc(Cc2cn(CCCCCCC(=O)NO)c3ccc(-c4c(C)noc4C)cc23)cc1

- IC50 [5]: 690 nM
- IC50 [6]: 550 nM
- IC50 [7]: 48 nM
- IC50 [8]: 38 nM
Structure (SMILES): O=C(CCCCCCNCc1ccc(-c2ccccc2)s1)NO

- IC50 [3]: 298 nM
- IC50 [4]: 181 nM
Structure (SMILES): Cc1noc(C)c1-c1ccc2c(c1)c(Cc1ccc(F)cc1)cn2CCCCCCC(=O)NO

- IC50 [1]: 13.7 nM
- IC50 [9]: 11.8 nM
- IC50 [10]: 8.5 nM
Structure (SMILES): O=C(NO)c1ccc(NC(=O)[C@@H](NC(=O)c2cccc(Br)c2)c2ccccc2)cc1

- IC50 [5]: 2900 nM
- IC50 [6]: 2100 nM
- IC50 [7]: 220 nM
- IC50 [8]: 1000 nM
Structure (SMILES): O=C(CCCCCCNCc1ccc([N+](=O)[O-])cc1)NO

- IC50 [2]: 62 nM
- IC50 [3]: > 1000 nM
- IC50 [4]: 314 nM
Structure (SMILES): Cc1ccccc1CCc1cn(CCCCCC(=O)NO)c2ccc(-c3c(C)noc3C)cc12

- IC50 [2]: 28 nM
- IC50 [3]: 139 nM
- IC50 [4]: 240 nM
Structure (SMILES): Cc1noc(C)c1-c1ccc2c(c1)c(CCc1ccccc1)cn2CCCCCCC(=O)NO

- IC50 [11]: > 50 µM
- IC50 [12]: > 50 µM
- IC50 [13]: > 50 µM
Structure (SMILES): CCCCNNC(=O)c1ccccc1

- IC50 [5]: 3700 nM
- IC50 [6]: 4600 nM
- IC50 [7]: 340 nM
- IC50 [8]: 1300 nM
Structure (SMILES): O=C(CCCCCCN(Cc1cc2ccccc2[nH]1)Cc1cc2ccccc2[nH]1)NO

- IC50 [5]: 320 nM
- IC50 [6]: 320 nM
- IC50 [7]: 39 nM
- IC50 [8]: 68 nM
Structure (SMILES): O=C(CCCCCCNCc1ccc2ccccc2c1)NO

- IC50 [11]: 24.2 µM
- IC50 [12]: > 50 µM
- IC50 [13]: > 50 µM
Structure (SMILES): O=C(NNCCCc1ccccc1)c1ccc(Br)cc1

- IC50 [14]: > 30 µM
- IC50 [15]: > 30 µM
- IC50 [16]: > 30 µM
- IC50 [17]: > 30 µM
Structure (SMILES): Nc1ccccc1NC(=O)CCCCCCC(=O)Nc1cccc(-c2cn(-c3ccccc3)nn2)c1

- IC50 [18]: 61 nM
Structure (SMILES): COC(=O)/C=C/c1ccc(OCCCCNc2cc3c([nH]c4ccccc43)c(-c3ccc(OC)cc3)n2)c(OC)c1

- IC50 [1]: 348.6 nM
Structure (SMILES): O=C(NO)c1ccc(NC(=O)[C@@H](NC(=O)c2ccc(Cl)cc2)c2ccccc2)cc1

- IC50 [19]: 13 nM
- IC50 [20]: 148 nM
- IC50 [18]: 27 nM
Structure (SMILES): COC(=O)/C=C/c1ccc(OCCCNc2cc3c([nH]c4ccccc43)c(-c3ccc(OC)cc3)n2)c(OC)c1

- IC50 [5]: 3000 nM
- IC50 [6]: 4100 nM
- IC50 [7]: 840 nM
- IC50 [8]: 1100 nM
Structure (SMILES): O=C(CCCCCCN(Cc1ccc(-c2ccccc2)s1)Cc1ccc(-c2ccccc2)s1)NO

- IC50 [2]: 62 nM
- IC50 [3]: 568 nM
- IC50 [4]: 222 nM
Structure (SMILES): Cc1cccc(Cc2cn(CCCCCC(=O)NO)c3ccc(-c4c(C)noc4C)cc23)c1
